Test results from publication PMC11062922 (Nature Chemical Biology, 2023).

How the values were obtained:
BMP2K = molecular target: T1, BMP2K (Homo sapiens, UniProt Q9NSY1); experiment: Kinobeads two-dose competition binding: BMP2K; conditions: for CATDS: target BMP2K
T1 construct: endogenous in cells
Excerpt: (§1) Briefly, Kinobeads comprise seven broad-spectrum small molecule kinase inhibitors immobilized on Sepharose beads. […]. Compounds of interest are set to compete for target protein binding with Kinobeads in the lysate and the amount of a given protein bound to Kinobeads in the presence of a compound can be quantified relative to a dimethylsulfoxide (DMSO) vehicle control by label-free mass spectrometry. This assay measures the physical interaction of a compound with thousands of endogenous proteins in parallel and, when systematically increasing the concentration of competitor, enables the calculation of an apparent interaction constant ( Kdapp ) for each compound and protein.
(§2) Kinobeads pulldown experiments were performed as described previously[13],[14],[17] with minor modification. […] The protein concentration was adjusted to 5 mg ml^−1. Kinase inhibitors were spiked into 0.5 ml of cell lysate at final concentrations of 100 and 1,000 nM (or DMSO, 0.3, 1, 3, 10, 30, 100, 300 and 1,000 nM for full dose experiments). […] Lysates were incubated for 45 min at 4 °C. Subsequently, lysates were incubated with Kinobeads ε (17.5 µl of settled beads) for 30 min at 4 °C. To assess the degree of protein depletion from the lysates by Kinobeads, the flow through of the DMSO control was recovered for a pulldown of pulldown experiment where the lysate was incubated a second time with fresh Kinobeads. Beads were washed in three steps with buffer containing 0.4%, 0.2% and no IGEPAL. Bound proteins were reduced with 50 mM DTT in 8 M Urea, 40 mM Tris-HCl pH 7.4 for 30 min at room temperature. After alkylation with 55 mM chloroacetamide, the urea concentration was reduced to 1–2 M and proteins were digested with trypsin. Acidified peptides were desalted and concentrated using SepPak tC18 µEluation plates (Waters). Samples were frozen, dried by vacuum centrifugation and stored at −20 °C.
(§3) Each kinase inhibitor was processed together with all DMSO controls of the same plate. Additionally, each search was supplemented with five high quality DMSO controls for consistent peptide identification and protein grouping. The resultant file (proteinGroups.txt) was used for subsequent filtering, normalization, data visualization and target annotation that was automatically performed by a data processing pipeline built in house that used R (including the ‘drc’ and ‘heatmap’ packages). First, reverse hits, potential contaminants and not quantified proteins in the DMSO control samples were discarded. Protein raw and label-free quantification intensities were normalized to the median DMSO control intensity to obtain relative residual binding intensities for each protein group at every inhibitor concentration and standard deviations of the DMSO control intensity were calculated. IC50 values were estimated based on the following equation IC50=I×100−inhibition/inhibition where [I] is the inhibitor concentration that was used for IC50 calculation and ‘inhibition’ the relative residual binding intensity. […]. Estimated Kdapp values were then calculated by multiplying the estimated IC50 values with a protein-dependent correction factor that was limited to a maximum value of one. The correction factor accounts for the depletion of a target protein from the lysate by Kinobeads. The depletion can be measured by the ratio of the amount of protein captured in two consecutive pulldowns of the same DMSO control lysate. In this study, correction factors were determined in separate experiments using the same lysate mixture and the same bead batch. Correction factors were set to the median of all correction factors. Targets of kinase inhibitors were annotated using the previously published random forest classifier. A training data set was annotated manually. […]

BMPR2 = molecular target: T2, BMPR2 (Homo sapiens, UniProt Q13873); experiment: Kinobeads two-dose competition binding: BMPR2; conditions: for CATDS: target BMPR2
T2 construct: to maximize the representation of endogenous proteins; endogenous in cells
T2 sequence (Q13873 27-1038): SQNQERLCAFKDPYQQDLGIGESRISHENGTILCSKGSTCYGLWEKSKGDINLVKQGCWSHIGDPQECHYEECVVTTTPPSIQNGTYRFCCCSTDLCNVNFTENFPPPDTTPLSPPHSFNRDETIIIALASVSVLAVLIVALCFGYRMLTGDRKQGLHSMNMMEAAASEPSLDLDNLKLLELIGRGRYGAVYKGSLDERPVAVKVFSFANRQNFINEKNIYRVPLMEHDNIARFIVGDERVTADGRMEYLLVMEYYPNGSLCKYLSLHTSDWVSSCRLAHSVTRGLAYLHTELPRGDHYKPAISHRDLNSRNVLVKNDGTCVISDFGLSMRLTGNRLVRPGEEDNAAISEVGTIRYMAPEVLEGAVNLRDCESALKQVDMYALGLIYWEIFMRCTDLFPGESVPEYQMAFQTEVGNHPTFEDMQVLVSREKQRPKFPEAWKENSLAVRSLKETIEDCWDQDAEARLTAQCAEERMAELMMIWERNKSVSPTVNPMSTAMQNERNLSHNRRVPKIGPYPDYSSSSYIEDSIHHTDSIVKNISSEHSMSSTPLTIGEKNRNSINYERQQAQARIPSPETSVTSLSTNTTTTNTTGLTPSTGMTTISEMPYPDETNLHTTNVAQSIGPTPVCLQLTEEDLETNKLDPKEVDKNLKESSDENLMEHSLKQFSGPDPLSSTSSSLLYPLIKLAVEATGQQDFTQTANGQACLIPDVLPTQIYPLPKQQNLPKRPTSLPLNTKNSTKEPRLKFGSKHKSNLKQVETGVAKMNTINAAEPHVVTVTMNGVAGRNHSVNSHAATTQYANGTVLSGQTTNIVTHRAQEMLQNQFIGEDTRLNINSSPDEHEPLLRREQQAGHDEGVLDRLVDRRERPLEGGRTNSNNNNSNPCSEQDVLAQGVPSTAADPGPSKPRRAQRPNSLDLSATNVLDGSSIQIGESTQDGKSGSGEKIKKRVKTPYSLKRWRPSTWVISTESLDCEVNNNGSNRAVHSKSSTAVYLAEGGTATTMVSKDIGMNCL
Excerpt: as §1, §2, §3

T1 sequence (Q9NSY1 whole entry): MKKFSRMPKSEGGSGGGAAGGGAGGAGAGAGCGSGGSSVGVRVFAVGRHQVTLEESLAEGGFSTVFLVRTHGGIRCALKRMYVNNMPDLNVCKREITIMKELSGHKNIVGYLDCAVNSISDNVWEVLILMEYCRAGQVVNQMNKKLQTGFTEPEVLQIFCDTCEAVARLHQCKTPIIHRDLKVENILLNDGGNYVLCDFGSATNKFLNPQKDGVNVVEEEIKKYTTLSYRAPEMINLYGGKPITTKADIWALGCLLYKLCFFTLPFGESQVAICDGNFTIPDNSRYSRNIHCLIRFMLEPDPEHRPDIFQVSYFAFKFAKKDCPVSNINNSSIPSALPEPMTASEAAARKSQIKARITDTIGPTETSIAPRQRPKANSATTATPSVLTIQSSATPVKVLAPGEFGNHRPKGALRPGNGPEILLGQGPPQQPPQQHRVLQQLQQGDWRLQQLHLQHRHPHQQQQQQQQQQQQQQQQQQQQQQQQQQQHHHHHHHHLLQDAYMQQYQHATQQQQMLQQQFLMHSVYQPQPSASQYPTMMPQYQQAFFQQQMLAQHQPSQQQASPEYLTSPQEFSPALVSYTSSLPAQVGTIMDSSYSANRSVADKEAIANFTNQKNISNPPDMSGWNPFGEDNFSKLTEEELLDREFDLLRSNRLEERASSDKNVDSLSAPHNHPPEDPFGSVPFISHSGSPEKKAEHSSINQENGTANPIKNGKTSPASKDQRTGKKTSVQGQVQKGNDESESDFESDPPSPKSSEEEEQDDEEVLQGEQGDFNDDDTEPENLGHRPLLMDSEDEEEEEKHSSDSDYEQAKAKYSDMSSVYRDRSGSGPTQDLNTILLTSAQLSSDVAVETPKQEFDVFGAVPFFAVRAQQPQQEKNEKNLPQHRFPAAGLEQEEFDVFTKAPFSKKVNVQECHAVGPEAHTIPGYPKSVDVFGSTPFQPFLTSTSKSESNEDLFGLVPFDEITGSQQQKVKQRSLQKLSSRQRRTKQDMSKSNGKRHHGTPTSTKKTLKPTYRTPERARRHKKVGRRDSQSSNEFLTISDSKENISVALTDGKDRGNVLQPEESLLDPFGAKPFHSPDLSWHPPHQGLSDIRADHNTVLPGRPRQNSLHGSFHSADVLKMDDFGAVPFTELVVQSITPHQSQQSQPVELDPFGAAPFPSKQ

potency estimated from few doses (BMP2K; Kinobeads two-dose, Drugmatrix - all 2, read-out: apparent Kd BMP2K) [nM]	potency estimated from few doses (BMPR2; Kinobeads two-dose, Drugmatrix - all 2, read-out: apparent Kd BMPR2) [nM]	Structure (SMILES)	CATDS (BMP2K)	CATDS (BMPR2)
		Nc1ncnc2[nH]c(-c3ccccc3)nc12 [AH5015_KCGS]	0	0
		CCN1CCN(Cc2ccc(Nc3ncc(F)c(-c4cc(F)c5nc(C)n(C(C)C)c5c4)n3)nc2)CC1 [Abemaciclib]	0	0
		CN(C)C/C=C/C(=O)Nc1cc2c(Nc3ccc(F)c(Cl)c3)ncnc2cc1O[C@H]1CCOC1 [Afatinib]	0	0
		CCc1cc2c(cc1N1CCC(N3CCOCC3)CC1)C(C)(C)c1[nH]c3cc(C#N)ccc3c1C2=O [Alectinib]	0	0
		N#CC1(c2ccc(NC(=O)c3cccnc3NCc3ccncc3)cc2)CCCC1 [Apatinib]	0	0
736	646	CC(C)N1CC(=O)N(C)c2cnc(Nc3cccc(S(=O)(=O)CCN4CCOCC4)c3)nc21 [BI00009348]		
